Measured values from patent US20070077552A1, “High throughput screen for inhibitors of polypeptide aggregation” (priority 2005, published 2007).

Key:
[1] = tested on: Aβ; details: cited from earlier work
[2] = molecular target: Aβ42 (Homo sapiens, UniProt P05067); details: shown previously (35, 36); cited from earlier work
[3] = molecular target: T1, Aβ42-linker-GFP fusion protein (Homo sapiens, UniProt P05067); test: Cell-free Aβ42-linker-GFP fluorescence assay; assay type: biochemical; details: 10 μM, cell-free system
T1 construct: Wild-type Aβ42-linker-GFP was expressed in the absence (gray) or presence (black) of 10 μM tannic acid; host or cells: cell-free E. coli T7 S30 extract system for circular DNA
T1 sequence (P05067 with tags, fused parts or gaps): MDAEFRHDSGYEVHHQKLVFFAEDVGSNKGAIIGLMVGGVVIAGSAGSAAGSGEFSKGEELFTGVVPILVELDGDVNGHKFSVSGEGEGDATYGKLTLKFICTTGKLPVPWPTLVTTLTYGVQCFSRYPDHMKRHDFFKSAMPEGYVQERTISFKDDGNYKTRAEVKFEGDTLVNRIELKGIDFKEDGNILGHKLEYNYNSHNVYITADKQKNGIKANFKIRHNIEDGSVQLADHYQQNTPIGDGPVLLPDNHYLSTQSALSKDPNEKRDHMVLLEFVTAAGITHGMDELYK
Description: In one embodiment, the assay uses a vector encoding Aβ42-linker-GFP in a cell-free in vitro transcription and translation system. For example, the basic protocol of the cell-free assay can involve the following steps: 1) Culture 500 ml to 1L of E. coli X1Blue strain harboring Aβ-linker-GFP fusion vector until the density of the suspension reaches O.D 0.9; 2) At O.D 0.9, spin down the cells at 4,000 g for 15 min; 3) Extract the vector using the Qiagen plasmid mega kit. (Cat. No. 12183); 4) After extraction, remove contaminants using phenol extraction; 5) Add E. coli T7 S30 extract system for circular DNA (Promega, Cat. No. L1130) into each well of a 96-well plate; 6) Add control or test substances (e.g. putative drug molecules or vectors that express inhibitory polypeptide) to each well; 7) Add Aβ-linker-GFP fusion vector, and express at RT or at 37 ° C. for 3 hrs; and 8) Measure the fluorescence emission at 510 nm (using an excitation at 490 nm). One of skill in the art will recognize that other transcription/translation systems, or a modified system, can be used. Likewise, the details of the protocol can be varied and optimized to accommodate other amyloidogenic proteins, to enhance the relative fluorescence, to accommodate the needs of the assayist, or a combination thereof.
FIG. 8 illustrates the inhibition of fluorescence of Aβ42-linker-GFP in a cell free system. […]

Aβ42, sequence (P05067 672-713 limits assumed, species assumed): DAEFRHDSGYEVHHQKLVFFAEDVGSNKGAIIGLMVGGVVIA

| Structure (SMILES) | Aβ oligomerization [1] | long-term potentiation [1] | inhibition of Aβ42 aggregation [2] | fluorescence of wild-type Aβ42-linker-GFP / inhibition of aggregation [3] |
| --- | --- | --- | --- | --- |
| CCc1nc(Nc2cccc(O)c2)nc(Nc2cccc(O)c2)n1 [RS-0466] | block Aβ oligomerization | rescue long-term potentiation |  |  |
| NCCc1ccc(O)c(O)c1 [dopamine] |  |  | inhibit A42 aggregation |  |
| O=C(OC[C@H]1O[C@@H](OC(=O)c2cc(O)c(O)c(OC(=O)c3cc(O)c(O)c(O)c3)c2)[C@H](OC(=O)c2cc(O)c(O)c(OC(=O)c3cc(O)c(O)c(O)c3)c2)[C@@H](OC(=O)c2cc(O)c(O)c(OC(=O)c3cc(O)c(O)c(O)c3)c2)[C@@H]1OC(=O)c1cc(O)c(O)c(OC(=O)c2cc(O)c(O)c(O)c2)c1)c1cc(O)c(O)c(OC(=O)c2cc(O)c(O)c(O)c2)c1 [tannic acid] |  |  | inhibit A42 aggregation | partially inhibits aggregation |
